Source: patent publication US9678060B2, “Lunasin-induced regulation of disease-related gene expression” (THE REGENTS OF THE UNIVERSITY OF CALIFORNIA, priority 2007, dated 2017)

What was measured:
[1] = target: T1, histone H4 N-terminal tail lysines acetylated by PCAF (Homo sapiens, UniProt P62805); test: In vitro histone acetylation (HAT) assay, PCAF; assay type: biochemical; details: 2 μM lunasin
T1 construct: Acid extracted histones from untreated Hela cells; endogenous in cells; host or cells: HeLa
From the text: (§1) Inhibition of histone acetylation and hypoacetylated histones are by nature correlated with transcriptional silencing and downregulation of genes. How then can lunasin, which inhibits H3 and H4 N-terminal tail acetylation, act as a transcriptional activator? To answer this question, the inventors determined the effect of lunasin on the acetylation of specific lysine residues on the H4 N-terminal tail ([…]) using the PCAF, Hat1 and p300 histone acetylase enzymes and acid-extracted core histones as substrate.
(§2) Acid extracted histones from untreated Hela cells and purified recombinant histone H4 are used as templates in an in vitro histone acetylation (HAT) assay. Histone templates are pre-incubated in the presence or absence of 2 μM lunasin peptide for 30 min at RT before the addition of acetyl co-A, HAT reaction buffer and histone acetylase enzymes (p300, HAT1 and PCAF). HAT reaction mixture is incubated with shaking at 30° C. for 1 h before stopping the reaction by adding protein sample buffer and boiling for 5 min. Samples are run on 10-20% SDS-PAGE gels, blotted onto nitrocellulose membranes and immunostained with antibodies against histone H4 with specific N-terminal lysine acetylation sites at […], 8, 12 and 16. Densitometer readings are normalized using signals from untreated histone templates.

[2] = target: T2, histone H4 N-terminal tail lysines acetylated by p300 (Homo sapiens, UniProt P62805); test: In vitro histone acetylation (HAT) assay, p300; assay type: biochemical
T2 construct: Acid extracted histones from untreated Hela cells; endogenous in cells; host or cells: HeLa
From the text: as §1, §2

deacetylated histone H4 = deacetylated histone H4 (Homo sapiens, UniProt P62805); test: Binding to histone H4 (FIG. 8)
[3] = test system: C3H 10T1/2 mouse embryo fibroblast cells; details: C3H/T101/2 cells pre-treated 24 hour with lunasin (as little as 125 nM), then DMBA and MCA; six weeks assay; cited from earlier work
thrombospondin (THBS) = test: Western blot of THBS protein in RWPE-1 and RWPE-2 cells; assay type: cell-based, human
From the text: (§3) THBS contains a CpG island within its promoter which together with other chemopreventative genes and tumor suppressors are frequently found to be hypermethylated during cancer formation. Since DNA hypermethylation of CpG islands is associated with histone hypoacetylation, we wanted to determine if there is a loss of H4-Lys16 acetylation within this region of the gene by conducting PCR on chromatin immunoprecipitated (ChiP) DNA using acetylated H4-Lys16 antibody and primers derived from the promoter/CpG island and exon 11 of the thrombospondin gene. […] The loss of H4-Lys16 acetylation on CpG island of the THBS promoter in tumor prostate cells leads to the silencing of the THBS gene and the inability of lunasin to increase H4-Lys16 acetylation and upregulate expression in tumorigenic cell lines.
(§4) THBS protein levels were determined in RWPE-1 and -2 cell lines treated with or without lunasin. PCR was conducted on ChIP DNA isolated with acetylated H4-Lys16 antibody, using primers derived from the promoter and exon 11 of the THBS gene.

[4] = test system: UGT1A family of genes in HepG2 liver cells; test: UGT1A expression in HepG2 cells (Western blot, RT-PCR); assay type: cell-based; details: 24 h
Description: HepG2 liver cells are grown in cell culture in the presence or absence of 10 uM lunasin peptide. After 24 h exposure, cells are harvested and total protein and RNA are harvested. Western blots are immunostained with UGT1A1 antibody and densitometer signals normalized using actin controls. […] Real-time quantitative RT-PCR will be conducted to measure differences in transcription levels.

[5] = test system: H4-Lys16 acetylation at THBS gene promoter/CpG island; test: PCR of ChIP DNA isolated with acetylated H4-Lys16 antibody; assay type: cell-based, human; details: lunasin-treated RWPE-1 (non-tumorigenic)
From the text: as §3, §4

female SENCAR mice = details: topical application; cited from earlier work
[6] = test system: p21/WAF1/Cip1 in NIH 3T3 cells; details: NIH 3T3 cells pre-treated 24 h, eight days after E1A transfection; cited from earlier work
[7] = target: T3, histone H4 N-terminal tail lysines acetylated by Hat1 (Homo sapiens, UniProt P62805); test: In vitro histone acetylation (HAT) assay, Hat1; assay type: biochemical
T3 construct: Acid extracted histones from untreated Hela cells; endogenous in cells; host or cells: HeLa
From the text: as §1, §2

[8] = test system: non-tumorigenic prostate epithelial cell line (RWPE-1); test: Microarray gene expression profile after 24 hour exposure to lunasin; assay type: cell-based, human
Description: (§5) In the present disclosure the investigators analyzed changes in gene expression profiles of normal (RWPE-1) and malignant (RWPE-2) prostate epithelial cell lines after 24 hour exposure to synthetic lunasin. Results disclosed herein support the anti-neoplastic property of lunasin and help elucidate its molecular mechanism. […] It is therefore reasoned that lunasin suppresses neoplastic transformation by up-regulating various genes.
(§6) To determine the genetic changes associated with lunasin treatment, the gene expression profiles of non-tumorigenic (RWPE-1) (SEQ ID No.2) and tumorigenic (RWPE-2) (SEQ ID No.2) prostate cells treated with synthetic lunasin were assessed using microarray analysis.

[9] = test system: tumorigenic prostate epithelial cell line (RWPE-2); test: as above; assay type: cell-based, human
Description: as §5, §6

[10] = test system: E1A-transfected C3H10T1/2 cells; details: cited from earlier work
[11] = test system: E1A-transfected mouse fibroblast NIH 3T3 cells; details: E1A-transfected NIH 3T3 cells; cited from earlier work
[12] = acid-extracted core histones, 2 μM lunasin
[13] = basal acid-extracted core histones, 2 μM lunasin
[14] = lunasin-treated acid-extracted core histones, 2 μM lunasin
[15] = recombinant H4, same in lunasin-treated and non-treated
[16] = RWPE-1, 24 hour exposure to 2 micromolar lunasin

In the case of “lunasin: 43 amino acid small subunit of a soybean 2S albumin; residues 22-64 of SEQ ID NO:2 of U.S. Pat. No. 6,544,956; used as synthetic peptide”, the “H4-Lys 5 acetylation by pCAF” value ([1]; acid-extracted core histones) is reported as “did not reduce”, the “inhibition of H4-Lys 8 acetylation by PCAF” value ([1]; basal acid-extracted core histones) is reported as 33% and the “H4-Lys12 acetylation by p300” value [2, 12] is reported as “did not reduce”. The “inhibition of H4-Lys 8 acetylation by p300” value [2, 13] was 23.5%, the “increase in H4-Lys16 acetylation by p300” value [2, 14] was 22% and the “Lys16 acetylation by p300, recombinant H4 as substrate” value [2, 15] was “loss of Lys16 acetylation”. The “binding preference for histone H4” value (deacetylated histone H4) was “preferentially binds to deacetylated histone H4”, the “reduction of foci formation” value [3] was 70% and the “THBS protein level (Western blot)” value (thrombospondin (THBS); non-tumorigenic RWPE-1 cell line) was “upregulated”. The “THBS protein level (Western blot)” value (thrombospondin (THBS); tumorigenic RWPE-2 prostate cells) was “silenced”, the “UGT1A1 protein levels (Western blot)” value ([4]; 10 uM lunasin) was “upregulates” and the “UGT1A1 expression (RT-PCR)” value ([4]; 10 μM lunasin) was “significant upregulation”. For the same substance, the “UGT1A3 expression (RT-PCR)” value ([4]; 10 μM lunasin) was “significant upregulation”, the “UGT1A6 expression (RT-PCR)” value ([4]; 10 μM lunasin) was “significant upregulation” and the “UGT1A10 expression (RT-PCR)” value ([4]; 10 μM lunasin) was “significant upregulation”. The “H4-Lys16 acetylation at THBS gene (ChIP PCR)” value [5] was “significant increase”, the skin tumorigenesis (female SENCAR mice) was “inhibited skin tumorigenesis” and the “increase in p21/WAF1/Cip1 protein levels” value [6] was “five-fold increase”. The “H4-Lys 5 acetylation by Hat1” value [7, 12] was “did not reduce”, the “H4-Lys12 acetylation by Hat1” value [7, 12] was “did not reduce” and the “inhibition of H4-Lys 8 acetylation by Hat1” value [7, 13] was 30%. For the same substance, the “increase in H4-Lys16 acetylation by Hat1” value [7, 14] was 30%, the “Lys16 acetylation by Hat1, recombinant H4 as substrate” value [7, 15] was “loss of Lys16 acetylation” and the “Number of genes up-regulated (greater than twofold change)” value ([8]; RWPE-1, 2 μM lunasin for 24 hours, 14500 genes interrogated) was 121 genes. For the same substance, the “Fold-change BNIP3, NIP3” value [8, 16] was 2.05, the “Fold-change BUB1B, BUBR1” value [8, 16] was 2.23 and the “Fold-change ERBB2IP, ERBIN” value [8, 16] was 2.23. The “Fold-change MAD2L1” value [8, 16] was 2.12, the “Fold-change PORIMIN” value [8, 16] was 2.26 and the “Fold-change PRKAR1A, PKA” value [8, 16] was 2.45. The “Fold-change PRKCL2, PRK2” value [8, 16] was 2.33, the “Fold-change PSMC6” value [8, 16] was 2.58 and the “Fold-change RANBP2” value [8, 16] was 2.36. For the same substance, the “Fold-change SMURF2” value [8, 16] was 2.29, the “Fold-change SPTLC1” value [8, 16] was 2.12 and the “Fold-change THBS1, TSP1” value [8, 16] was 2.05. For the same substance, the “Fold-change TOB1” value [8, 16] was 2.32, the “Fold-change TTK” value [8, 16] was 2.08 and the “Fold-change UBE1C” value [8, 16] was 2.15. For the same substance, the “Fold-change USP1” value [8, 16] was 2.23, the “SP3 expression in microarray” value ([8]; at 24 hours) was “upregulated” and the Genes down-regulated ([8]; non-tumorigenic epithelial cells, 2 μM lunasin) was “No genes were down-regulated”. The “p21/WAF1/Cip1 expression in microarray” value ([8]; within 24 hours) was “did not show upregulation”, the “Genes up-regulated (greater than twofold change)” value ([9]; RWPE-2, 2 μM lunasin for 24 hours, 14500 genes interrogated) was “only two genes were up-regulated” and the Genes down-regulated ([9]; tumorigenic epithelial cells, 2 μM lunasin) was “No genes were down-regulated”. The apoptosis [10] was “induce apoptosis” and the foci formation [11] was “suppress foci formation”.
